{
  "source": "patent US20100240700A1",
  "about": "“PROPHYLACTIC PRETREATMENT WITH ANTIOXIDANTS” (MITOS PHARMACEUTICALS, INC., priority 2003, published 2010)",
  "test_system": "cerebral ischemia (infarcts) in patients with aneurysmal subarachnoid hemorrhage",
  "test": "clinical study of Tempol on prevention of cerebral ischemia during treatment of aneurysms (MRI-DWI infarct count and size)",
  "assay_type": "in vivo",
  "conditions": "human patients, 1-300 mg/kg orally before and after surgical or endovascular treatment; MRI-DWI 1-3 days and 6 weeks post-treatment",
  "protocol": "This example describes a clinical study to determine the effect of Tempol on the prevention of cerebral ischemia during treatment of aneurysms in human patients that have bled. Patients, having suffered aneurysmal subarachnoid hemorrhaging, undergo magnetic resonance imaging (MRI-DWI) to count the number of infarcts and measure their size. Either 1-300 mg/kg of Tempol or a placebo are orally administered to the human patients. Patients undergo treatment for subarachnoid hemorrhaging (e.g., surgical or endovascular). After surgery, 1-300 mg/kg of Tempol or a placebo are orally administered to the patients. 1-3 days post-treatment, follow up MRI-DWI is used to count and measure the size of infarcts. The number and size of the infarcts is also measured 6 weeks post-treatment using MRI-DWI.",
  "data": [
    {"smiles": "CC1(C)CC(O)CC(C)(C)N1[O]", "note": "[Tempol, 4-hydroxy-2,2,6,6-tetramethylpiperidine-1-oxyl]", "values": [
      {"measurement": "number of infarcts (MRI-DWI) versus placebo", "value": "fewer"},
      {"measurement": "size of infarcts (MRI-DWI) versus placebo", "value": "smaller sized"}
    ]}
  ]
}
